Calls of active or inactive are those of the source. The rule behind the calls is not given here.
How the values were obtained:
[1] = target: T1, RAC-alpha serine/threonine-protein kinase (Homo sapiens, UniProt P31749); conditions: Sf9
Description: Binding affinity to Akt1 (144 to 480) expressed in Sf9 cells assessed as fluorescence quenching by Trp fluorescence assay

[2] = target: T1, RAC-alpha serine/threonine-protein kinase; conditions: Sf9; remark: listed apart in the source
Description: Binding affinity to Akt1 (1 to 480) expressed in Sf9 cells assessed as fluorescence quenching by Trp fluorescence assay

[3] = target: T1, RAC-alpha serine/threonine-protein kinase; conditions: Sf9; remark: listed apart in the source
Description: Binding affinity to Akt1 (1 to 480) expressed in Sf9 cells assessed as change in melting temperature at 15 uM

[4] = target: T1, RAC-alpha serine/threonine-protein kinase; conditions: Sf9; remark: listed apart in the source
Description: Binding affinity to Akt1 (144 to 480) expressed in Sf9 cells assessed as change in melting temperature at 15 uM

[5] = target: T1, RAC-alpha serine/threonine-protein kinase; test: Inhibition of Akt1 in human A2780 cells assessed as phosphorylation of Akt at S473 after 2 hrs by Western Blot analysis; assay type: cell-based
[6] = target: T1, RAC-alpha serine/threonine-protein kinase; test: Inhibition of Akt1 in human AN3CA cells assessed as phosphorylation of Akt at S473 after 2 hrs by Western Blot analysis; assay type: cell-based, AN3-CA
[7] = target: T1, RAC-alpha serine/threonine-protein kinase; test: Inhibition of Akt 1 in human A2780 cells assessed as phosphorylation of Akt at T308 after 2 hrs by Western Blot analysis; assay type: cell-based
[8] = target: T1, RAC-alpha serine/threonine-protein kinase; test: Inhibition of Akt 1 in human AN3CA cells assessed as phosphorylation of Akt at T308 after 2 hrs by Western Blot analysis; assay type: cell-based, AN3-CA
[9] = target: T1, RAC-alpha serine/threonine-protein kinase; test: Inhibition of Akt1 in human A2780 cells assessed as phosphorylation PRAS40 at T246 after 2 hrs by Western Blot analysis; assay type: cell-based
[10] = target: T1, RAC-alpha serine/threonine-protein kinase; test: Inhibition of Akt1 in human AN3CA cells assessed as phosphorylation PRAS40 at T246 after 2 hrs by Western Blot analysis; assay type: cell-based, AN3-CA
[11] = tested on: A2780; test: Antiproliferative activity against human A2780 cells after 72 hrs by MTS assay; assay type: functional, cell-based; conditions: A2780, 72 h
[12] = tested on: AN3-CA; test: Antiproliferative activity against human AN3CA cells after 72 hrs by MTS assay; assay type: functional, cell-based
[13] = target: T2, RAC-beta serine/threonine-protein kinase (Homo sapiens, UniProt P31751); test: Binding affinity to Akt2 (1 to 481) expressed in Sf9 cells assessed as change in melting temperature at 15 uM
T2 sequence (P31751 whole entry): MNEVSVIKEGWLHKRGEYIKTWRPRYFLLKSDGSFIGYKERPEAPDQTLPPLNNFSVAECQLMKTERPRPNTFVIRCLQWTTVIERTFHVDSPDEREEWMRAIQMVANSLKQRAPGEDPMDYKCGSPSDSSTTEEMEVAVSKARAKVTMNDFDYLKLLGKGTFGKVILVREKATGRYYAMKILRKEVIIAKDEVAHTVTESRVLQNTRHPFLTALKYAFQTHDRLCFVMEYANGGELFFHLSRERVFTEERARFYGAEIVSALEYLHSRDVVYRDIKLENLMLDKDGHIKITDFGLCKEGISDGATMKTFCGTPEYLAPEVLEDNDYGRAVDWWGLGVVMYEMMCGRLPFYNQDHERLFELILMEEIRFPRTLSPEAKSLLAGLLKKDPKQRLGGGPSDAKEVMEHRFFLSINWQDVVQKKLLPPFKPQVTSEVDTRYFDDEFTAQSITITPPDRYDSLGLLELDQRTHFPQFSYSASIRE

[14] = target: T3, RAC-gamma serine/threonine-protein kinase (Homo sapiens, UniProt Q9Y243); test: Binding affinity to Akt3 (1 to 479) expressed in Sf9 cells assessed as change in melting temperature at 15 uM
T3 sequence (Q9Y243 whole entry): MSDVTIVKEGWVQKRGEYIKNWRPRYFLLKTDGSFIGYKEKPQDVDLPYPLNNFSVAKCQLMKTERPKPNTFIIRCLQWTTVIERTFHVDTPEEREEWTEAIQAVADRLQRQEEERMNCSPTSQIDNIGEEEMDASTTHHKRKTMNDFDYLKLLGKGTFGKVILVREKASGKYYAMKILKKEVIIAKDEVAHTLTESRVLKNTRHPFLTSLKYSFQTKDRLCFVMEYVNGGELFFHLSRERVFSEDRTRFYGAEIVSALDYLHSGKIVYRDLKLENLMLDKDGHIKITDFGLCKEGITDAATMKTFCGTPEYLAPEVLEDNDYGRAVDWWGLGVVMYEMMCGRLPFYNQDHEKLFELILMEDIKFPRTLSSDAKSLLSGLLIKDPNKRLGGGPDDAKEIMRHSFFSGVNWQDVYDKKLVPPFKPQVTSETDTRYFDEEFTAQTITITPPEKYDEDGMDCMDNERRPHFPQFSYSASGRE

[15] = target: T2, RAC-beta serine/threonine-protein kinase; test: Inhibition of Akt2 (1 to 481) expressed in Sf9 cells using biotin-GRPRTSSFAEG as substrate after 20 mins by Alpha-screen assay
[16] = target: T3, RAC-gamma serine/threonine-protein kinase; test: Inhibition of Akt3 (1 to 479) expressed in Sf9 cells using biotin-GRPRTSSFAEG as substrate after 20 mins by Alpha-screen assay
[17] = target: T4, Cytochrome P450 1A2 (Homo sapiens, UniProt P05177); test: Inhibition of CYP1A2 in human liver microsomes using phenacetin as substrate after 10 mins; assay type: ADME, Microsome
T4 sequence (P05177 whole entry): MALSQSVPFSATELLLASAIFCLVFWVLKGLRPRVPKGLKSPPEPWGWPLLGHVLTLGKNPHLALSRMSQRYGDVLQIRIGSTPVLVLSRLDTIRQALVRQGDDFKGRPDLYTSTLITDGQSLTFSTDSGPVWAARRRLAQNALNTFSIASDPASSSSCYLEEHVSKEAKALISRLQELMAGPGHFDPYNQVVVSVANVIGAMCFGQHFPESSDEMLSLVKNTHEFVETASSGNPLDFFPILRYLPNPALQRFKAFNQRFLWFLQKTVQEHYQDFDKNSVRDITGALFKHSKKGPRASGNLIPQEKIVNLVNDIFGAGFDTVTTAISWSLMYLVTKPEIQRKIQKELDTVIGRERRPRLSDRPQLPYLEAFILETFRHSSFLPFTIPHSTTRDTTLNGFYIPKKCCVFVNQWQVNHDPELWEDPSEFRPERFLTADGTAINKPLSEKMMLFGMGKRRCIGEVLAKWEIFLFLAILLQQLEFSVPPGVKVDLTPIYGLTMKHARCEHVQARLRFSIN

[18] = target: Cytochrome P450 2C19 (Homo sapiens, UniProt P33261); test: Inhibition of CYP2C19 in human liver microsomes using S-mephenytoin as substrate after 10 mins; assay type: ADME, Microsome
Sequence of Cytochrome P450 2C19 (P33261 whole entry): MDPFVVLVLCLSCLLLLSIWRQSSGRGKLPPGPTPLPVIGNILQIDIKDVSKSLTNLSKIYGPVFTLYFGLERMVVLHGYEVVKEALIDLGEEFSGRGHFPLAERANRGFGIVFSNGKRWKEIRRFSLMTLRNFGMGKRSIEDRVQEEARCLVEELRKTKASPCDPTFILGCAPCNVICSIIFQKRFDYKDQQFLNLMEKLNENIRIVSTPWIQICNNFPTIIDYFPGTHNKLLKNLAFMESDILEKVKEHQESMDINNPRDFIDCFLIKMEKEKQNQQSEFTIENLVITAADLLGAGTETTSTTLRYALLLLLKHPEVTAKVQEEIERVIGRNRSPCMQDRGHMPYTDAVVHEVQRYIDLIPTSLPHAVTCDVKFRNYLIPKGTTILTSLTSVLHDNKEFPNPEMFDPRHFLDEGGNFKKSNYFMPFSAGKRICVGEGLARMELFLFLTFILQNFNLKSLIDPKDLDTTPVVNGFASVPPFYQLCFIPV

[19] = target: T5, Cytochrome P450 2C8 (Homo sapiens, UniProt P10632); test: Inhibition of CYP2C8 in human liver microsomes using paclitaxel as substrate after 10 mins; assay type: ADME, Microsome
T5 sequence (P10632 whole entry): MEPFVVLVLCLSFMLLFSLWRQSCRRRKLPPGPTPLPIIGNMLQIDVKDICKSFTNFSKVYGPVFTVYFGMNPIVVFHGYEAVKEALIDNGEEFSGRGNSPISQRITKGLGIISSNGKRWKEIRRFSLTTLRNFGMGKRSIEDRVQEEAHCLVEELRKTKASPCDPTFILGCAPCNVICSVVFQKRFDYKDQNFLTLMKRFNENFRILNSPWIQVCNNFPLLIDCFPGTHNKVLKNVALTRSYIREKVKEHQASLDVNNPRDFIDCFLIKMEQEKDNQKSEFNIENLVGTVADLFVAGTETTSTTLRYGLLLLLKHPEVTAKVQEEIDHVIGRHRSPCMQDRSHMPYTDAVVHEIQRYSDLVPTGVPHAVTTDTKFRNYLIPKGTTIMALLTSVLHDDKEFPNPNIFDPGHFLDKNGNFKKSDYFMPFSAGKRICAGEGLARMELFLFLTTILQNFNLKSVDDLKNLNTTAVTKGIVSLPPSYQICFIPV

[20] = target: Cytochrome P450 2C9 (Homo sapiens, UniProt P11712); test: Inhibition of CYP2C9 in human liver microsomes using tolbutamide as substrate after 10 mins; assay type: ADME, Microsome
Sequence of Cytochrome P450 2C9 (P11712 whole entry): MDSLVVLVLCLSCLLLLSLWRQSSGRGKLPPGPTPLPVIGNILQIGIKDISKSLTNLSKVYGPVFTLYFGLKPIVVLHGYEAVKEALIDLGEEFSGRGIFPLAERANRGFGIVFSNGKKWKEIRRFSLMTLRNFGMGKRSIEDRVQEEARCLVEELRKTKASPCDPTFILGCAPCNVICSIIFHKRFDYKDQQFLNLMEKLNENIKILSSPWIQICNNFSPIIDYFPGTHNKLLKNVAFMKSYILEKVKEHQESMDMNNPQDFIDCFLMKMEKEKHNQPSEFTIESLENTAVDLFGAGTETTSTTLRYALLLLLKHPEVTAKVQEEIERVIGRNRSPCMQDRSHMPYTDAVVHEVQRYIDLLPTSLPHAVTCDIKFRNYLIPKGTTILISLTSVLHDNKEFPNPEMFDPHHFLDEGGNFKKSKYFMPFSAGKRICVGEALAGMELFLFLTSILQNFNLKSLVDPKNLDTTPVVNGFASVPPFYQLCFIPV

[21] = target: Cytochrome P450 2D6 (Homo sapiens, UniProt P10635); test: Inhibition of CYP2D6 in human liver microsomes using bufuralol as substrate after 10 mins; assay type: ADME, Microsome
Sequence of Cytochrome P450 2D6 (P10635 whole entry): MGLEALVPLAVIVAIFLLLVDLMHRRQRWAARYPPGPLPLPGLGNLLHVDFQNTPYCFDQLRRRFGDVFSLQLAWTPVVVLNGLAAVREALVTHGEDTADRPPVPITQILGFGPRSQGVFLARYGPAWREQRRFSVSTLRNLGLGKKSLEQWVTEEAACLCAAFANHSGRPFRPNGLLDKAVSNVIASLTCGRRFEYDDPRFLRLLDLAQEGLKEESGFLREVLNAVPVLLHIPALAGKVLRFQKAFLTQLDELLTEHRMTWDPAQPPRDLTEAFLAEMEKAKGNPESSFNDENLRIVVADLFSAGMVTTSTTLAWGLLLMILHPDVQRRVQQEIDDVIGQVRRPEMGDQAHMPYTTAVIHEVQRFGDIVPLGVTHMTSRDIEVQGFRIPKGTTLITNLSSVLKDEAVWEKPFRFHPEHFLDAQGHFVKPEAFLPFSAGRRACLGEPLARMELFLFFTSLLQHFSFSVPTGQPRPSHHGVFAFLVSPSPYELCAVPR

[22] = target: Cytochrome P450 3A4 (Homo sapiens, UniProt P08684); test: Inhibition of CYP3A4 in human liver microsomes using midazolam as substrate after 10 mins; assay type: ADME, Microsome
Sequence of Cytochrome P450 3A4 (P08684 whole entry): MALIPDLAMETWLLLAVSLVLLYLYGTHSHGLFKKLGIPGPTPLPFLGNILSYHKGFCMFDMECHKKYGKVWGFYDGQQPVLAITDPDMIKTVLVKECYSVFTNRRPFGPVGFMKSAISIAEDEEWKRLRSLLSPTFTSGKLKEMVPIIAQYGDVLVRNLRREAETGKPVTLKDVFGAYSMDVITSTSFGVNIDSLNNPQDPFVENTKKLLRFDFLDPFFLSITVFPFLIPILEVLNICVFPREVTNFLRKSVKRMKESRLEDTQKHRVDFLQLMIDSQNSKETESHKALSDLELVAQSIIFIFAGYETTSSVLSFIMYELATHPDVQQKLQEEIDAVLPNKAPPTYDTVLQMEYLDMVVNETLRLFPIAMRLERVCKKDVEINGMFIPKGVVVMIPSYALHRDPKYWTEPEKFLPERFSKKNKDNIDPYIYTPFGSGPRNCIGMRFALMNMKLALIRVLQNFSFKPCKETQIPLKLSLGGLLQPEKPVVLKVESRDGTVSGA

[23] = Half life in human liver microsomes at 1 uM by LC/MS/MS; assay type: ADME, Microsome
[24] = Half life in male CD1 mouse liver microsomes at 1 uM by LC/MS/MS; assay type: ADME, Microsome
[25] = Half life in female CD1 mouse liver microsomes at 1 uM by LC/MS/MS; assay type: ADME, Microsome
[26] = tested on: Mus musculus; test: Inhibition of Akt in human AN3CA cells xenografted NCr mouse assessed as reduction of Akt phosphorylation at S473 in tumor at 250 mg/kg, po after 2 hrs; assay type: functional; conditions: AN3-CA
[27] = tested on: Mus musculus; test: Inhibition of Akt in human AN3CA cells xenografted NCr mouse assessed as reduction of Akt phosphorylation at T308 in tumor at 250 mg/kg, po after 2 hrs; assay type: functional; conditions: AN3-CA
[28] = tested on: Mus musculus; test: Inhibition of Akt in human AN3CA cells xenografted NCr mouse assessed as reduction of p70S6 phosphorylation at T389 in tumor at 250 mg/kg, po after 2 hrs; assay type: functional; conditions: AN3-CA
[29] = tested on: Mus musculus; test: Inhibition of Akt in human AN3CA cells xenografted NCr mouse assessed as reduction of Akt phosphorylation at S473 in tumor at 250 mg/kg, po after 4 hrs; assay type: functional; conditions: AN3-CA
[30] = tested on: Mus musculus; test: Inhibition of Akt in human AN3CA cells xenografted NCr mouse assessed as reduction of Akt phosphorylation at T308 in tumor at 250 mg/kg, po after 4 hrs; assay type: functional; conditions: AN3-CA
[31] = tested on: Mus musculus; test: Inhibition of Akt in human AN3CA cells xenografted NCr mouse assessed as reduction of p70S6 phosphorylation at T389 in tumor at 250 mg/kg, po after 4 hrs; assay type: functional; conditions: AN3-CA
[32] = Plasma concentration in CD1 mouse at 250 mg/kg, po after 2 hrs by LC/MS/MS analysis; assay type: ADME, organism-based; set-up: dose 250 mg/kg, route oral
[33] = Plasma concentration in CD1 mouse at 250 mg/kg, po after 4 hrs by LC/MS/MS analysis; assay type: ADME, organism-based; set-up: dose 250 mg/kg, route oral
[34] = Drug level in human AN3CA cells xenografted NCr mouse tumor at 250 mg/kg, po after 2 hrs; assay type: ADME, organism-based, Neoplasm, AN3-CA; set-up: dose 250 mg/kg, route oral; conditions: read-out: Drug uptake
[35] = Drug level in human AN3CA cells xenografted NCr mouse tumor at 250 mg/kg, po after 4 hrs; assay type: ADME, organism-based, Neoplasm, AN3-CA; set-up: dose 250 mg/kg, route oral; conditions: read-out: Drug uptake
[36] = target: T1, RAC-alpha serine/threonine-protein kinase; test: Inhibition of Akt1 (1 to 480) expressed in Sf9 cells in presence of A674563
[37] = target: T1, RAC-alpha serine/threonine-protein kinase; test: Binding affinity to Akt1 (1 to 480) expressed in Sf9 cells by SPR analysis
[38] = target: T1, RAC-alpha serine/threonine-protein kinase; conditions: Sf9; remark: listed apart in the source
[39] = target: T1, RAC-alpha serine/threonine-protein kinase; test: Inhibition of Akt1 (1 to 480) expressed in Sf9 cells using biotin-GRPRTSSFAEG as substrate after 20 mins by Alpha-screen assay
[40] = Oral bioavailability in NCr mouse at 100 mg/kg; assay type: ADME, organism-based; conditions: in vivo
[41] = tested on: Mus musculus; test: Inhibition of Akt in human AN3CA cells xenografted NCr mouse assessed as reduction of Akt phosphorylation at S473 in tumor at 100 mg/kg, po after 2 hrs; assay type: functional; conditions: AN3-CA
[42] = tested on: Mus musculus; test: Inhibition of Akt in human AN3CA cells xenografted NCr mouse assessed as reduction of Akt phosphorylation at T308 in tumor at 100 mg/kg, po after 2 hrs; assay type: functional; conditions: AN3-CA
[43] = tested on: Mus musculus; test: Inhibition of Akt in human AN3CA cells xenografted NCr mouse assessed as reduction of p70S6 phosphorylation at T389 in tumor at 100 mg/kg, po after 2 hrs; assay type: functional; conditions: AN3-CA
[44] = Plasma concentration in CD1 mouse at 100 mg/kg, po after 2 hrs by LC/MS/MS analysis; assay type: ADME, organism-based; set-up: dose 100 mg/kg, route oral
[45] = Drug level in human AN3CA cells xenografted NCr mouse tumor at 100 mg/kg, po after 2 hrs; assay type: ADME, organism-based, Neoplasm, AN3-CA; set-up: dose 100 mg/kg, route oral; conditions: read-out: Drug uptake

T1 sequence (P31749 whole entry): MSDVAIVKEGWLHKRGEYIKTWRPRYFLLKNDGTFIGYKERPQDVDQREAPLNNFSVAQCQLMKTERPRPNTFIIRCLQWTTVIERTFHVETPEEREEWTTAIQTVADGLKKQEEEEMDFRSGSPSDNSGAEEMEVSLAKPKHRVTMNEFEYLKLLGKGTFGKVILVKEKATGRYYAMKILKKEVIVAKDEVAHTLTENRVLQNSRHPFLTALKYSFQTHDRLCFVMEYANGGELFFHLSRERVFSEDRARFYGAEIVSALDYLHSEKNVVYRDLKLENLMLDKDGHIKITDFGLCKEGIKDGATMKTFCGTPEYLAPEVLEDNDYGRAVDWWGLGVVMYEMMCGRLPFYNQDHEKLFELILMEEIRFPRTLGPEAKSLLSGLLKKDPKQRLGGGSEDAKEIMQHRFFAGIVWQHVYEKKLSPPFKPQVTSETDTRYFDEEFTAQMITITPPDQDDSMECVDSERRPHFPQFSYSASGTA

SMILES	IC50 [5] [nM]	IC50 [6] [nM]	IC50 [7] [nM]	IC50 [8] [nM]	IC50 [9] [nM]	IC50 [10] [nM]	IC50 [11] [nM]	IC50 [12] [nM]	ΔTm [13] [°C]	ΔTm [14] [°C]	IC50 [15] [nM]	IC50 [16] [nM]	IC50 [17] [nM]	IC50 [18] [nM]	IC50 [19] [nM]	IC50 [20] [nM]	IC50 [21] [nM]	IC50 [22] [nM]	half-life at 1 µM [23] [min]	half-life at 1 µM [24] [min]	other results
Cc1n[nH]c2ccc(-c3cncc(OC[C@@H](N)Cc4ccccc4)c3)cc12	–	–	–	–	–	–	–	–	–	–	–	–	–	–	–	–	–	–	–	–	ΔTm [1]: 2.12 °C; deltaTm [2]: inactive; deltaTm [3]: inactive; ΔTm [4]: 1.3 °C
CC(=O)Nc1cccc(-c2ccc3nc(-c4cccnc4N)n(-c4ccc(CNC(=O)c5cccc(F)c5)cc4)c3n2)c1	27	44	32	45	250	220	2200	2000	7.7	2.9	18	170	> 10000	1000	1000	1000	> 10000	> 10000	> 30	> 30	half-life at 1 µM [25]: > 30 min; inhibition in vivo at 250 mg/kg [26]: 62%; inhibition in vivo at 250 mg/kg [27]: 57%; inhibition in vivo at 250 mg/kg [28]: 90%; inhibition in vivo at 250 mg/kg [29]: 51%; inhibition in vivo at 250 mg/kg [30]: 67%; inhibition in vivo at 250 mg/kg [31]: 86%; concentration at 2 h [32]: 2000 nM; concentration at 4 h [33]: 1200 nM; concentration at 2 h [34]: 1200 nM; concentration at 4 h [35]: 600 nM; inhibition [36]: Active; Activity [37]: Active; ΔTm [38]: 13 °C
Nc1ncccc1-c1nc2cc(-c3cccnc3)cnc2n1-c1ccc(CNC(=O)c2ccccc2)cc1	100	80	62	91	950	1500	> 100000	> 100000	4.8	1.6	30	660	> 10000	> 10000	> 10000	> 10000	> 10000	> 10000	> 30	> 60	IC50 [39]: 8 nM; half-life at 1 µM [25]: > 60 min; bioavailability [40]: 46%; inhibition in vivo at 100 mg/kg [41]: 82%; inhibition in vivo at 100 mg/kg [42]: 25%; inhibition in vivo at 100 mg/kg [43]: 76%; concentration at 2 h [44]: 14100 nM; concentration at 2 h [45]: 8400 nM; ΔTm [38]: 9.2 °C

Reference: ChEMBL document CHEMBL2176970, “Discovery and optimization of a series of 3-(3-phenyl-3H-imidazo[4,5-b]pyridin-2-yl)pyridin-2-amines: orally bioavailable, selective, and potent ATP-independent Akt inhibitors” (J Med Chem, 2012)
